Measurements taken from US12343349B2, “Imipramine for use as an inhibitor of Fascin1 overexpression” (FUNDACION UNIVERSITARIA SAN ANTONIO, priority 2018, dated 2025).
Read-outs that look alike come from different tables or passages of the source.

How the values were obtained:
[1] = test system: HCT-116 colorectal cell line; assay: Myoma organotypic invasion model; format: cell-based, human; settings: HCT-116, 14 days, compared to control
Procedure: To improve the reliability of the experimental model compared to the real tumor microenvironment, cancer cell invasion was assessed in the myoma organotypic cultures and performed according to the previously published myoma model (Åström, P., Heljasvaara, R., Nyberg, P., Al-Samadi, A., & Salo, 2018). Briefly, uterine leiomyoma tissues were obtained from routine surgery after informed consent of the donors and their use approved by The Ethics Committee of the Oulu University Hospital. The myoma tissue was sliced into 5 mm and disks were made with an 8-mm biopsy punch (Kai Industries Co., Gifu, Japan). Myoma disks were pre-incubated in 100 μM MGS, 10 μM and 20 μM imipramine or 0.1% DMSO-DMEM treatments at +4° C. for 48 h. The myoma disks were placed into Transwell inserts (diameter 6.5 mm; Corning Incorporated, Corning, NY) and 700,000 cells in 50 μl of media were added on top of each myoma disk. The cells were allowed to attach overnight and the myoma disks were transferred onto uncoated nylon disks resting on curved steel grids in 12-well plates with 12 well plates with 1 ml of media plus migrastatin and imipramine in each well. The cancer cells were left to invade the myoma disks for 14 days, while changing the treatment media every 3 days. Subsequently the myoma discs were fixed with 4% neutral buffered formalin at room temperature for 24 h, and processed for histology. […]

[2] = test system: colorectal cancer cell lines (DLD-1 and HCT-116) injected in zebra fish; assay: Zebra fish larvae invasion model (xenograft); format: in vivo; settings: DLD-1 and HCT-116 cells treated and injected in larvae
Procedure: Finally, in order to find out whether the anti-invasive properties of imipramine could be extrapolable to an animal system, the well-established zebra fish larvae invasion model was used. A xenograft assay was carried out by stained with fluorescent CM-Dil (Vibrant, Invitrogen) two colorectal cancer cell lines (DLD-1 and HCT-116) and injected in zebra fish. The result obtained is referred to the percentage of cell invasion.
Injection and migration of different colorectal cancer cell lines in zebra fish model (A). Two colorectal cancer cell lines (DLD-1 and HCT-166) were treated with migrastatin and imipramine and injected in zebra fish larvae.

[3] = test system: HCT-116 colorectal cancer cell line; assay: Cell migration (wound healing) assay, HCT-116; format: cell-based, human; settings: for Migration (%): slope 4-7 h relative to control, imipramine 20 μM, migrastatin 100 μM
Procedure: (§1) Except for SW-480, imipramine effect was more pronounced than migrastatin, especially for DLD-1. Cell migration was studied with the three cell lines by performing the wound healing assay in the presence of 5% FBS. Cancer colorectal cells (50,000 cells) were plated in low 35-mm-dishes with culture inserts (Ibidi, Martinsried, Germany). After appropriate cell attachment and monolayer formation (around for 24 h), inserts were then removed with sterile forceps to create a wound field of approximately 500 μm, according to the manufacturer protocol. Detached cells were gently removed with phosphate buffered saline (PBS, Dubelco) before the addition of drugs. Confluent cells were incubated in one of the following treatments: 100 μM migrastatin (AnalytiCon Discovery, cat. No. NP-006108), and 20 μM imipramine ((purchased via Molport, Letonia) and, control dishes that were incubated in the presence of 0.1% DMSO. Cells were then allowed to migrate in a cell culture incubator for 24 h. At 0, 3, 5 and 7 h (linear growth phase), 10 fields of the injury area were photographed with an inverted and phase contrast microscopy at ×10 magnification incorporating a CCD camera. For each timepoint, the area uncovered by cells was determined by an image processing free software analysis with Image J software program.
(§2) The migration speed of the wound closure is given as the percentage of the recovered area at each time point, relative to the initially covered area (0 h). The velocity of wound closure (%/h) was calculated according to the formula: Slope (%/h)=((% covered area t_x)−(% covered area t_0))/((tx−t_0)). Slopes are then expressed as percentages relative to control conditions.

[4] = test system: DLD1 colorectal cancer cell line; assay: Cell migration (wound healing) assay, DLD1; format: cell-based, human; settings: for Migration (%): DLD1, slope 4-7 h relative to control, imipramine 20 μM, migrastatin 100 μM
Procedure: as §1, §2

fascin1 [5] = molecular target: T1, fascin1 (Homo sapiens, UniProt Q16658); assay: Fluorescence titration; format: binding; settings: 25° C., 10% DMSO, 100 mM NaCl, 20 mM Hepes, pH 7.4; read-out: dissociation constant Kd
T1 construct: purchased Hypermol, Bielefeld, Germany 8411-02
Procedure: Fascin1 was extensively dialized against the appropriate buffer prior to each titration experiment. Fascin1 concentration was determined by measuring absorbance at 280 nm using an extinction coefficient of 67840 cm-1-M-1. Fluorescence titration experiments were performed in a Cary Eclipse spectrofluorimeter (Varian Inc.). A 15 μM (14.7 μM) fascin1 solution was titrated with each compound by adding increasing volumes of concentrated solutions. Emission spectra were recorded between 307 and 500 nm at 25° C. in 10% DMSO, 100 mM NaCl, 20 mM Hepes, pH 7.4, with the excitation wavelength fixed at 280 nm. Binding isotherms were generated using either the changes in spectral area or in spectral centre of mass (CM), depending whether the change was only in fluorescence intensity or was also in the maximum emission wavelength.
The resulting curves were fitted using ORIGIN 7.0 (Microcal Inc.) and a one-site equilibrium binding model, according to the following equation:
[formula] Ff and Fb are the fluorescence signal (area or CM) of free and bound fascin1 and PT and LT are the total protein and ligand concentration, respectively, at each addition point. Tm values were measured as the minimum of the first derivative of the thermal unfolding profile. […]

fascin1 [6] = molecular target: T1, fascin1; assay: Differential Scanning Fluorimetry (Thermofluor) thermal shift assay; format: binding; settings: for ΔTm at 1000 µM: vs free fascin1
Procedure: Differential Scanning Fluorimetry (Thermofluor) assays were performed using a Biorad C1000 Touch Thermal Cycler CFX96 RT-PCR system in a 96-well format.
Imipramine was prepared at 10 mM in 100% DMSO and added to each well to a final concentration of 1 mM and 10% DMSO. Three replicates with six internal controls, containing only free protein in 10% DMSO, were included in the 96-well plates. The PCR plates were covered and subsequently shaken, centrifuged, incubated for 2 min at 20° C. inside the RT-PCR machine and heated from 20 to 100° C. at a 1° C./min scan-rate. Fascin1 thermal denaturation profiles were obtained recording the fluorescence intensity for the FAM, HEX and T-Red predefined filters. The derivative of the fluorescence curve was used to determine the Tm. Changes in Tm associated to ligand binding were estimated taking the average Tm value derived from the free protein internal controls.
[formula] Ff and Fb are the fluorescence signal (area or CM) of free and bound fascin1 and PT and LT are the total protein and ligand concentration, respectively, at each addition point. Tm values were measured as the minimum of the first derivative of the thermal unfolding profile.

HCT116 cell line = assay: Immunofluorescence of fascin1 localization and lamellipodia formation; format: cell-based, human; settings: for filopodia lamellipodium formation: 24 h, migrastatin 100 μM, imipramine 20 μM, PD98059 50 μM, EGF 10 ng/ml; for Lamellipodia protrusion number: data not shown
Procedure: In order to assess the effect of imipramine on fascin1 localization and lamelipodia formation an immunofluorescence assay was performed. Round coverslips (Thermo Fisher, Waltham, MA USA) were seeded with HCT116 cell line in the presence of 10% FBS. After cells reached 100% confluence, serum supplemented medium was removed and replaced with fresh serum free medium for 24 h. Artificial wounding was performed by transversally dragging a sterilized razor blade on the central area of the coverslips. Coverslips were then placed in 6-well plate with 2 mL serum free DMEM and 100 μM migrastatin, 20 μM imipramine, Epidermal Growth Factor (EGF) 10 ng/ml and MEK inhibitor PD98059 50 μM (MEKi) (both from Sigma-Aldrich, St Louis, MO, USA) for 24 h. Cells were then fixed with Bouin (for fascin1 protein) or 4% formaldehyde (for actin protein) and subsequently permeabilized in a 0.3% Triton X-100/PBS solution, and then exposed to blocking buffer for 30 min. Samples were incubated for 1 h with anti-fascin1 antibody (1/250) (55K-2 clone; Santa Cruz Biotechnology, Heidelberg, Germany) or anti-β actin antibody (1/1000) (Sigma-Aldrich, St Louis, MO, USA) in a wet chamber.
Appropriate fluorescent-labelled primary antibodies were incubated later with Alexa fluor 488-conjugated anti-mouse IgG (from donkey) (1/400) or Alexa fluor 594-labelled phalloidin, respectively (1/1000) (Molecular Probes, Thermo Fisher Scientific, Waltham, MA USA) and Hoechst 33258 (Fluka, Biochemika, Sigma-Aldrich, St Louis, MO, USA) for 30 min at room temperature and darkness. Samples were examined and representative images were taken with a confocal microscope (LSM 510 META from ZEISS, Jena, Germany). The effect of imipramine on the fascin1 localization and the reorganization of the actin cytoskeleton, which includes the protrusion of the lamellipodium at the cell front filopodia formation and fascin1 localization, was assessed by immunofluorescence.

[7] = test system: SW-480 colorectal cancer cell line; assay: Cell migration (wound healing) assay, SW-480; format: cell-based, human; settings: for Migration (%): slope 4-7 h relative to control, imipramine 20 μM, migrastatin 100 μM
Procedure: as §1, §2

HCT116 cells = assay: Transwell invasion assay on Matrigel; format: cell-based, human; settings: 30 hours; migrastatin 100 μM, imipramine 20 μM
Procedure: Tumor cell invasion not only involved the acquisition of migration properties but also the ability to degrade the extracellular matrix (ECM). For that reason, we performed a Transwell assay on Matrigel which resembles the ECM composition. The invasive capacities of HCT116 cells were determined using Cytoselect TM 24 Well Cell Invasion Assay (Basement Membrane Colorimetric Format) with coated Transwell chambers (8 μm pore size). Briefly, cells were resuspended with serum-free medium and treated with corresponding inhibitors (migrastatin 100 μM and, imipramine 20 μM). Cells (9.5×10^4) were seeded into the upper chamber, and in the lower chamber 500 μL of DMEM containing 10% FBS were added. After 30 hours of incubation, cells that remained on the upper chamber were scraped away with a cotton swab, and cells that migrated to the bottom of the filter were stained with the cell stain solution. The number of invaded cells was photographed under an inverted phase contrast microscope and quantified D.O.D by a spectrophotometer at λ=560 nm. Also we analyzed the invasive cells using the Image J software. […] A) Invasiveness of cells after treatment with different drugs. Pictures were taken under an inverted phase contrast microscope. The magnification was ×200 and scale bars=50 μm. B) Quantification of the invasive cells D.O. by a spectrophotometer at A=560 nm. […]

With `CN(C)CCCN1c2ccccc2CCc2ccccc21` [imipramine, 3-(10,11-dihydro-5H-dibenzo[b,f]azepin-5-yl)-N,N-dimethylpropan-1-amine] the area of invasion [1] was “inhibits”, the depth of invasion [1] was “inhibits” and the “cell invasion in zebra fish larvae” value [2] was “diminishing cell invasion is evident”. For the same molecule, the “inhibition of migration” value ([3]; 20 μM, p<0.05) was “remarkable inhibition of migration”, the “Migration (%)” value [3] was 43.25% and the “Migration (%)” value [4] was 23.21%. For the same molecule, the “inhibition of migration” value ([4]; DLD-1, 20 μM, p<0.05) was “remarkable inhibition of migration”, the Kd (fascin1 [5]) was 390 µM and the “Tm, FAM” value (fascin1 [6]; 1 mM compound, 2 μM fascin1, FAM filter) was 58.3 ± 0.6 °C. For the same molecule, the ΔTm at 1000 µM (fascin1 [6]; 1 mM compound, 2 μM fascin1, FAM filter, read-out: ΔTm, FAM) was 2.7 ± 1.1 °C, the “Tm, HEX” value (fascin1 [6]; 1 mM compound, 2 μM fascin1, HEX filter) was 58.0 ± 0.0 °C and the ΔTm at 1000 µM (fascin1 [6]; 1 mM compound, 2 μM fascin1, HEX filter, read-out: ΔTm, HEX) was 2 °C. For the same molecule, the “Tm, TRed” value (fascin1 [6]; 1 mM compound, 2 μM fascin1, T-Red filter) was 58.0 ± 0.0 °C, the ΔTm at 1000 µM (fascin1 [6]; 1 mM compound, 2 μM fascin1, T-Red filter, read-out: ΔTm, TRed) was 1.8 ± 0.6 °C and the “increase in Tm” value (fascin1 [6]; text summary over filters) was “about 2 °C”. The filopodia lamellipodium formation (HCT116 cell line) was “absent”, the Lamellipodia protrusion number (HCT116 cell line) was “significantly lower” and the “inhibition of migration” value ([7]; 20 μM, p<0.05) was “remarkable inhibition of migration”. For the same molecule, the “Migration (%)” value [7] was 77.52% and the “HCT-116 cell invasive ability (transwell)” value (HCT116 cells) was “inhibit tumor cell migration”.
In the case of `COc1cccc(-c2cc(=O)c3ccccc3o2)c1N` [PD98059], the filopodia lamellipodium formation (HCT116 cell line) is reported as “absent”.
With `CO[C@H]1/C=C/CC/C=C/C(=O)O[C@H]([C@H](C)C(=O)CCCC2CC(=O)NC(=O)C2)/C(C)=C\[C@@H](C)[C@@H]1O` [migrastatin] the “Migration (%)” value [3] was 44.59%, the “Migration (%)” value [4] was 67.91% and the filopodia lamellipodium formation (HCT116 cell line) was “absent”. For the same molecule, the Lamellipodia protrusion number (HCT116 cell line) was “significantly lower”, the “Migration (%)” value [7] was 70.34% and the “HCT-116 cell invasive ability (transwell)” value (HCT116 cells) was “inhibit tumor cell migration”.
In the case of “EGF: Epidermal Growth Factor (migration stimulator)”, the filopodia lamellipodium formation (HCT116 cell line) is reported as “prominent filopodia lamellipodium formation”.
